Source: patent US20250313574A1, “SIALIC ACID DERIVATIVES AND METHODS OF USING SAME” (EISAI R&D MANAGEMENT CO., LTD., priority 2022, published 2025)

Experiments:
[1] = molecular target: Recombinant Human Siglec-3/CD33 protein (His-CD33) (Homo sapiens (Human), UniProt P20138); experiment: Differential scanning fluorimetry (DSF) thermal shift assay; type: binding; conditions: difference in thermal melt of CD33 protein (0.5 μM) with 50 μM compound
[2] = molecular target: Recombinant human CD33 protein (Homo sapiens (Human), UniProt P20138); experiment: CD33 competitive binding assay for HTS drug screen (fluorescent multivalent sialic acid probe)
Method in brief: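 Recombinant human CD33, coated overnight at 4° C from 10 μg/ml in pH 5.5 acetate, was preincubated briefly with compound. It was then exposed to a multivalent neutravidin/FITC/sialic acid analog A-375 probe (final 5 μM neutravidin, 15 μM A-375, 5 μM FITC) for 30 min at room temperature. After washing, bound FITC fluorescence was read.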

Chain of Recombinant human CD33 protein (P20138 18-259): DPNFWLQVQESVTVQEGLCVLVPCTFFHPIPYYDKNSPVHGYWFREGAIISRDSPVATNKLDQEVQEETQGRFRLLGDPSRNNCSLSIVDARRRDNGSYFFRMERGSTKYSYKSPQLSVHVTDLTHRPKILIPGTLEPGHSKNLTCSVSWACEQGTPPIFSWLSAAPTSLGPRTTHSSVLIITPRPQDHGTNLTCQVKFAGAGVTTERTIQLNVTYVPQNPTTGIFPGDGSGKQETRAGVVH
Chain of Recombinant Human Siglec-3/CD33 protein (His-CD33) (P20138 18-259): as above

| DSF (dTmD) [1] | EC50 [2] | Structure (SMILES) |
| --- | --- | --- |
| 4.1 °C | 1.37 µM | COCCC(=O)NCc1cccc(/C=C/C[C@]2(C(=O)O)C[C@H](O)[C@@H](NC(=O)Cn3cc(C4CCCCC4)nn3)[C@H]([C@H](O)[C@H](O)CNC(=O)c3cc(C)c(O)c(C)c3)O2)c1 [A-265] |
| 6.2 °C | 1.38 µM | CC(=O)N1CCC(C(=O)NCc2cccc(/C=C/C[C@]3(C(=O)O)C[C@H](O)[C@@H](NC(=O)Cn4cc(C5CCCCC5)nn4)[C@H]([C@H](O)[C@H](O)CNC(=O)c4cc(C)c(O)c(C)c4)O3)c2)CC1 [A-266] |
| 3.8 °C | 9.17 µM | Cc1cc(C(=O)NC[C@@H](O)[C@@H](O)[C@@H]2O[C@@](C/C=C/c3cccc(CNC(=O)C4CCCO4)c3)(C(=O)O)C[C@H](O)[C@H]2NC(=O)Cn2cc(C3CCCCC3)nn2)cc(C)c1O (stereo partly drawn) [A-267] |
| 6.5 °C | 3.46 µM | Cc1cc(C(=O)NC[C@@H](O)[C@@H](O)[C@@H]2O[C@@](C/C=C/c3cccc(CNC(=O)c4ccccc4C(F)(F)F)c3)(C(=O)O)C[C@H](O)[C@H]2NC(=O)Cn2cc(C3CCCCC3)nn2)cc(C)c1O [A-269] |
| 6.0 °C | 2.8 µM | Cc1cc(C(=O)NC[C@@H](O)[C@@H](O)[C@@H]2O[C@@](C/C=C/c3cccc(CNC(=O)c4cnccn4)c3)(C(=O)O)C[C@H](O)[C@H]2NC(=O)Cn2cc(C3CCCCC3)nn2)cc(C)c1O [A-270] |
| 5.1 °C | 3.99 µM | Cc1cc(C(=O)NC[C@@H](O)[C@@H](O)[C@@H]2O[C@@](C/C=C/c3cccc(CNC(=O)c4ccon4)c3)(C(=O)O)C[C@H](O)[C@H]2NC(=O)Cn2cc(C3CCCCC3)nn2)cc(C)c1O [A-271] |
| 4.9 °C | 9.64 µM | Cc1cc(C(=O)NC[C@@H](O)[C@@H](O)[C@@H]2O[C@@](C/C=C/c3cccc(CNC(=O)C4C5OCCC[C@H]54)c3)(C(=O)O)C[C@H](O)[C@H]2NC(=O)Cn2cc(C3CCCCC3)nn2)cc(C)c1O (stereo partly drawn) [A-272] |
| 5.4 °C | 9.94 µM | Cc1cc(C(=O)NC[C@@H](O)[C@@H](O)[C@@H]2O[C@@](C/C=C/c3cccc(CNC(=O)c4ccn(C)c(=O)c4)c3)(C(=O)O)C[C@H](O)[C@H]2NC(=O)Cn2cc(C3CCCCC3)nn2)cc(C)c1O [A-273] |
| 5.7 °C | 4.7 µM | Cc1cc(C(=O)NC[C@@H](O)[C@@H](O)[C@@H]2O[C@@](C/C=C/c3cccc(CNC(=O)CC4CCOCC4)c3)(C(=O)O)C[C@H](O)[C@H]2NC(=O)Cn2cc(C3CCCCC3)nn2)cc(C)c1O [A-274] |
| 7.0 °C | 8.63 µM | Cc1cc(C(=O)NC[C@@H](O)[C@@H](O)[C@@H]2O[C@@](C/C=C/c3cccc(CNC(=O)c4ccn(-c5ccccn5)n4)c3)(C(=O)O)C[C@H](O)[C@H]2NC(=O)Cn2cc(C3CCCCC3)nn2)cc(C)c1O [A-275] |
| 6.2 °C | 2.92 µM | Cc1cc(C(=O)NC[C@@H](O)[C@@H](O)[C@@H]2O[C@@](C/C=C/c3cccc(CNC(=O)c4scnc4C)c3)(C(=O)O)C[C@H](O)[C@H]2NC(=O)Cn2cc(C3CCCCC3)nn2)cc(C)c1O [A-276] |
| 4.3 °C | 10.2 µM | Cc1cc(C(=O)NC[C@@H](O)[C@@H](O)[C@@H]2O[C@@](C/C=C/c3cccc(CNC(=O)c4cn[nH]c4)c3)(C(=O)O)C[C@H](O)[C@H]2NC(=O)Cn2cc(C3CCCCC3)nn2)cc(C)c1O [A-277] |
| 8.8 °C | 1.74 µM | Cc1cc(C(=O)NC[C@@H](O)[C@@H](O)[C@@H]2O[C@@](C/C=C/c3cccc(CNC(=O)c4ccc5[nH]ccc5c4)c3)(C(=O)O)C[C@H](O)[C@H]2NC(=O)Cn2cc(C3CCCCC3)nn2)cc(C)c1O [A-278] |
| 4.5 °C | 10.4 µM | COc1cc(C(=O)NCc2cccc(/C=C/C[C@]3(C(=O)O)C[C@H](O)[C@@H](NC(=O)Cn4cc(C5CCCCC5)nn4)[C@H]([C@H](O)[C@H](O)CNC(=O)c4cc(C)c(O)c(C)c4)O3)c2)ccc1O [A-279] |
| 3.8 °C | 4.9 µM | Cc1cc(C(=O)NC[C@@H](O)[C@@H](O)[C@@H]2O[C@@](C/C=C/c3cccc(CNC(=O)c4ccc5[nH]cnc5c4)c3)(C(=O)O)C[C@H](O)[C@H]2NC(=O)Cn2cc(C3CCCCC3)nn2)cc(C)c1O [A-280] |
| 6.9 °C | 1.52 µM | Cc1cc(C(=O)NC[C@@H](O)[C@@H](O)[C@@H]2O[C@@](C/C=C/c3cccc(CNC(=O)C4CCC(NS(C)(=O)=O)CC4)c3)(C(=O)O)C[C@H](O)[C@H]2NC(=O)Cn2cc(C3CCCCC3)nn2)cc(C)c1O (stereo partly drawn) [A-281] |
| 6.2 °C | 1.68 µM | Cc1cc(C(=O)NC[C@@H](O)[C@@H](O)[C@@H]2O[C@@](C/C=C/c3cccc(CNC(=O)C4CCC[C@H](NS(C)(=O)=O)C4)c3)(C(=O)O)C[C@H](O)[C@H]2NC(=O)Cn2cc(C3CCCCC3)nn2)cc(C)c1O (stereo partly drawn) [A-282] |
| 2.1 °C | 102 µM | Cc1cc(C(=O)NC[C@@H](O)[C@@H](O)[C@@H]2O[C@@](C/C=C/c3ccccc3)(C(=O)O)C[C@H](O)[C@H]2NC(=O)Cn2cc(C3CCCCC3)nn2)cc(C)c1O [A-283] |

| DSF (dTmD) [1] | EC50 [2] | Structure (SMILES) |
| --- | --- | --- |
| 6.8 °C | 1.66 µM | Cc1cc(C(=O)NC[C@@H](O)[C@@H](O)[C@@H]2O[C@@](C/C=C/c3ccc4c(c3)C(NC(=O)C3CCCOC3)CC4)(C(=O)O)C[C@H](O)[C@H]2NC(=O)Cn2cc(C3CCCCC3)nn2)cc(C)c1O (stereo partly drawn) [A-284] |
| 9.0 °C | 9.98 µM | Cc1cc(C(=O)NC[C@@H](O)[C@@H](O)[C@@H]2O[C@@](C/C=C/c3cccc(CNC(=O)OC(C)(C)C)c3)(C(=O)O)C[C@H](O)[C@H]2NC(=O)Cn2cc(C3CCCCC3)nn2)cc(C)c1O [A-285] |
| 2.2 °C | 2.84 µM | Cc1ccc(CNC(=O)C2CCCOC2)cc1/C=C/C[C@]1(C(=O)O)C[C@H](O)[C@@H](NC(=O)Cn2cc(C3CCCCC3)nn2)[C@H]([C@H](O)[C@H](O)CNC(=O)c2cc(C)c(O)c(C)c2)O1 (stereo partly drawn) [A-286] |
| 6.0 °C | 1.16 µM | Cc1ccc(CN(C)C(=O)C2CCCOC2)cc1/C=C/C[C@]1(C(=O)O)C[C@H](O)[C@@H](NC(=O)Cn2cc(C3CCCCC3)nn2)[C@H]([C@H](O)[C@H](O)CNC(=O)c2cc(C)c(O)c(C)c2)O1 (stereo partly drawn) [A-287] |
| 5.3 °C | 2.68 µM | CC(=O)N[C@H]1[C@H]([C@H](O)[C@H](O)CNC(=O)c2cc(C)c(O)c(C)c2)O[C@@](C/C=C/c2ccccc2CNC(=O)OC(C)(C)C)(C(=O)O)C[C@@H]1O [A-288] |
| 5.3 °C | 2.68 µM | CC(=O)N[C@H]1[C@H]([C@H](O)[C@H](O)CNC(=O)c2cc(C)c(O)c(C)c2)O[C@@](C/C=C/c2cc(CNC(=O)C3CCCOC3)ccc2C)(C(=O)O)C[C@@H]1O (stereo partly drawn) [A-289] |
| 2.0 °C | 20.4 µM | CC(=O)N[C@H]1[C@H]([C@H](O)[C@H](O)CNC(=O)c2cc(C)c(O)c(C)c2)O[C@@](C/C=C/c2cc(CNC(=O)C3CCCOC3)ccc2C)(C(=O)O)C[C@@H]1O (stereo partly drawn) [A-290] |
| 2.9 °C | 4.3 µM | CC(=O)N[C@H]1[C@H]([C@H](O)[C@H](O)CNC(=O)c2cc(C)c(O)c(C)c2)O[C@@](C/C=C/c2cccc(-c3cc(N)on3)c2)(C(=O)O)C[C@@H]1O [A-291] |
| 4.0 °C | 3.02 µM | CC(=O)N[C@H]1[C@H]([C@H](O)[C@H](O)CNC(=O)c2cc(C)c(O)c(C)c2)O[C@@](C/C=C/c2cccc(CN(C)C(=O)C3CCCOC3)c2)(C(=O)O)C[C@@H]1O (stereo partly drawn) [A-292] |
| 4.2 °C | 7.94 µM | CC(=O)N[C@H]1[C@H]([C@H](O)[C@H](O)CNC(=O)c2cc(C)c(O)c(C)c2)O[C@@](C/C=C/c2cccc(CNC(=O)C3CCCOC3)c2)(C(=O)O)C[C@@H]1O (stereo partly drawn) [A-293] |
| 4.2 °C | 4.61 µM | CC(=O)N[C@H]1[C@H]([C@H](O)[C@H](O)CNC(=O)c2cc(C)c(O)c(C)c2)O[C@@](C/C=C/c2cnc(CNC(=O)C3CCCOC3)s2)(C(=O)O)C[C@@H]1O (stereo partly drawn) [A-294] |
| 4.0 °C | 6.64 µM | CC(=O)N[C@H]1[C@H]([C@H](O)[C@H](O)CNC(=O)c2cc(C)c(O)c(C)c2)O[C@@](C/C=C/c2cccc(C3CCCN3C(=O)OC(C)(C)C)c2)(C(=O)O)C[C@@H]1O (stereo partly drawn) [A-295] |
| 6.4 °C | 0.477 µM | CC(=O)N[C@H]1[C@H]([C@H](O)[C@H](O)CNC(=O)c2cc(C)c(O)c(C)c2)O[C@@](CC2OC(C)(C)O[C@H]2c2cccc(NC(=O)OC(C)(C)C)c2)(C(=O)O)C[C@@H]1O (stereo partly drawn) [A-296] |
| 8.0 °C | 0.512 µM | Cc1cc(C(=O)NC[C@@H](O)[C@@H](O)[C@@H]2O[C@@](CC3OC(C)(C)O[C@H]3c3cccc(NC(=O)OC(C)(C)C)c3)(C(=O)O)C[C@H](O)[C@H]2NC(=O)Cn2cc(C3CCCCC3)nn2)cc(C)c1O (stereo partly drawn) [A-299] |
| 1.6 °C | 44.6 µM | Cc1cc(C(=O)NC[C@@H](O)[C@@H](O)[C@@H]2O[C@@](CC(O)[C@@H](O)c3cccc(NC(=O)OC(C)(C)C)c3)(C(=O)O)C[C@H](O)[C@H]2NC(=O)Cn2cc(C3CCCCC3)nn2)cc(C)c1O (stereo partly drawn) [A-300] |
| 3.5 °C | 5.26 µM | Cc1cc(C(=O)NC[C@@H](O)[C@@H](O)[C@@H]2O[C@@](CC3OC(C)(C)O[C@H]3c3cccc(CNC(=O)OC(C)(C)C)c3)(C(=O)O)C[C@H](O)[C@H]2NC(=O)Cn2cc(C3CCCCC3)nn2)cc(C)c1O (stereo partly drawn) [A-301] |
| 4.9 °C | 1.5 µM | CC(=O)N[C@H]1[C@H]([C@H](O)[C@H](O)CNC(=O)c2cc(C)c(O)c(C)c2)O[C@@](CC2OC(C)(C)O[C@H]2c2cccc(NC(=O)c3ccc4cc[nH]c4c3)c2)(C(=O)O)C[C@@H]1O (stereo partly drawn) [A-302] |

| Structure (SMILES) | DSF (dTmD) [1] | EC50 [2] |
| --- | --- | --- |
| Cc1cc(C(=O)NC[C@@H](O)[C@@H](O)[C@@H]2O[C@@](C/C=C/c3cccc(CNC(=O)C4CCCOC4)c3)(C(=O)O)C[C@H](O)[C@H]2NC(=O)Cn2cc(C3CCCCC3)nn2)cc(C)c1O (stereo partly drawn) [A-268] | 6.2 °C | 1.32 µM |
